This is an account of results in paper PMC12775819, “Optimizing PSMA-617-based inhibitors through charged linker modifications: Insights into structure-activity relationships” (Theranostics, 2026).

Non-standard residues stand in square brackets, D forms with d. Residues, ends and D or L forms follow the SMILES beside them. *: point of attachment. DOTA = O=C(O)CN1CCN(CC(=O)O)CCN(CC(=O)*)CCN(CC(=O)O)CC1; EuK = O=C(O)CC[C@H](NC(=O)N[C@@H](CCCCN*)C(=O)O)C(=O)O; 2Nal = N[C@@H](Cc1ccc2ccccc2c1)C(=O)O; Trx = NC[C@H]1CC[C@H](C(=O)O)CC1

Data set [1] is described as follows: Dynamic small-animal PET imaging (0 - 60 min). The settings on record: male, BALB/c nu/nu, mouse, tumor (LNCaP xenograft), iv, 500 pmol, total radioactivity.
Data set [2] can be described thus: Static small-animal PET imaging 1 h and 2 h p.i. Particulars: male, BALB/c nu/nu, mouse, iv, 500 pmol, total radioactivity; for SUV at 1 h / SUV at 2 h: 68Ga-labeled, 0.5 nmol i.v., n = 1, SD from VOIs; for SUV at 1 h: static PET 1 h p.i.; for SUV at 2 h: static PET 2 h p.i.
Where [3] appears, read: tumor (LNCaP xenograft), SUV tumor.

In the case of `O=C(O)CC[C@H](NC(=O)N[C@@H](CCCCNC(=O)[C@H](Cc1ccc2ccccc2c1)NC(=O)[C@H]1CC[C@H](CNC(=O)[C@H](CCC(=O)O)NC(=O)[C@H](Cc2c[nH]cn2)NC(=O)[C@H](CCC(=O)O)NC(=O)[C@H](Cc2c[nH]cn2)NC(=O)[C@H](CCC(=O)O)NC(=O)[C@H](Cc2c[nH]cn2)NC(=O)CN2CCN(CC(=O)O)CCN(CC(=O)O)CCN(CC(=O)O)CC2)CC1)C(=O)O)C(=O)O` [[^68Ga]Ga-PS4, metal not drawn] ({DOTA}-HEHEHE[Trx][2Nal]-EuK), the SUV at 1 h in data set [1] is 1.07 SUV; in data set [2] (kidneys, SUV kidneys), 3.81 ± 0.15 SUV; in data set [2] (setting [3]), 1.15 ± 0.04 SUV. Further, the SUV at 2 h in data set [2] (kidneys, SUV kidneys) was determined as 2.77 ± 0.2 SUV; in data set [2] (setting [3]), 1.07 ± 0.09 SUV. In addition, the tissue to tissue ratio at 1 h in data set [2] (tumor / muscle) came to 10.5 ± 0.2.
